# Read-outs that look alike come from different tables or passages of the source. Marks after values point to notes of the source that are not given here.
# Test system: DispersinB
# Type: biochemical, Aggregatibacter actinomycetemcomitans
# Conditions: for % enzymatic activity of DispersinB (Mean): polyol % as in label; for temperature stabilizing effect on DispersinB at elevated temperatures: 42° C., 52° C., and 62° C.
# Experimental: Samples from each formula was incubated at 3 different temperatures (42° C., 52° C. and 62° C.) for 3 hours. Following a 3 hour incubation, the samples were brought to room temperature for enzymatic activity assay.
# Two-tailed paired T-test was performed by to compare each polyol containing treatment with the treatment devoid of polyol. Treatment with probability values (p) less than 5% (0.05) was considered significant.
structure (smiles),measurement,setting,value
"O[C@H]1[C@H](O)[C@@H](O)[C@H](O)[C@@H](O)[C@H]1O [inositol, Inositol]",% enzymatic activity of DispersinB (Mean),"4° C., freshly made control without polyol = 100%, listed as 0.25% Inositol",104%
same,% enzymatic activity of DispersinB (Mean),"4° C., freshly made control without polyol = 100%, listed as 0.5% Inositol",101%
same,% enzymatic activity of DispersinB (Mean),"4° C., freshly made control without polyol = 100%, listed as 1% Inositol",101%
same,% enzymatic activity of DispersinB (Mean),"4° C., freshly made control without polyol = 100%, listed as 2% Inositol",102%
same,% enzymatic activity of DispersinB (Mean),"4° C., freshly made control without polyol = 100%, listed as 4% Inositol",107* %
same,% enzymatic activity of DispersinB (Mean),"4° C., freshly made control without polyol = 100%, listed as 6% Inositol",112* %
same,% enzymatic activity of DispersinB (Mean),"4° C., freshly made control without polyol = 100%, listed as 8% Inositol",118* %
same,% enzymatic activity of DispersinB (Mean),"4° C., freshly made control without polyol = 100%, listed as 10% Inositol",115* %
same,% enzymatic activity of DispersinB (Mean),"4° C., freshly made control without polyol = 100%, listed as 12% Inositol",118* %
same,% enzymatic activity of DispersinB (Mean),"4° C., freshly made control without polyol = 100%, listed as 14% Inositol",124* %
same,% enzymatic activity of DispersinB (Mean),"42° C. for 3 hours, control without polyol = 100%, listed as 0.25% Inositol",96* %
same,% enzymatic activity of DispersinB (Mean),"42° C. for 3 hours, control without polyol = 100%, listed as 0.5% Inositol",97* %
same,% enzymatic activity of DispersinB (Mean),"42° C. for 3 hours, control without polyol = 100%, listed as 1% Inositol",99* %
same,% enzymatic activity of DispersinB (Mean),"42° C. for 3 hours, control without polyol = 100%, listed as 2% Inositol",101* %
same,% enzymatic activity of DispersinB (Mean),"42° C. for 3 hours, control without polyol = 100%, listed as 4% Inositol",106* %
same,% enzymatic activity of DispersinB (Mean),"42° C. for 3 hours, control without polyol = 100%, listed as 6% Inositol",112* %
same,% enzymatic activity of DispersinB (Mean),"42° C. for 3 hours, control without polyol = 100%, listed as 8% Inositol",126* %
same,% enzymatic activity of DispersinB (Mean),"42° C. for 3 hours, control without polyol = 100%, listed as 10% Inositol",113* %
same,% enzymatic activity of DispersinB (Mean),"42° C. for 3 hours, control without polyol = 100%, listed as 12% Inositol",118* %
same,% enzymatic activity of DispersinB (Mean),"42° C. for 3 hours, control without polyol = 100%, listed as 14% Inositol",115%
same,temperature stabilizing effect on DispersinB at elevated temperatures,,exhibited temperature stabilizing effect
same,% enzymatic activity of DispersinB (Mean),"52° C. for 3 hours, control without polyol = 100%, listed as 0.5% Inositol",1* %
same,% enzymatic activity of DispersinB (Mean),"52° C. for 3 hours, control without polyol = 100%, listed as 1% Inositol",3* %
same,% enzymatic activity of DispersinB (Mean),"52° C. for 3 hours, control without polyol = 100%, listed as 2% Inositol",8* %
same,% enzymatic activity of DispersinB (Mean),"52° C. for 3 hours, control without polyol = 100%, listed as 4% Inositol",19* %
same,% enzymatic activity of DispersinB (Mean),"52° C. for 3 hours, control without polyol = 100%, listed as 6% Inositol",37* %
same,% enzymatic activity of DispersinB (Mean),"52° C. for 3 hours, control without polyol = 100%, listed as 8% Inositol",66* %
same,% enzymatic activity of DispersinB (Mean),"52° C. for 3 hours, control without polyol = 100%, listed as 10% Inositol",77* %
same,% enzymatic activity of DispersinB (Mean),"52° C. for 3 hours, control without polyol = 100%, listed as 12% Inositol",86* %
same,% enzymatic activity of DispersinB (Mean),"52° C. for 3 hours, control without polyol = 100%, listed as 14% Inositol",92* %
"OC[C@@H](O)[C@@H](O)[C@H](O)[C@@H](O)CO [sorbitol, (2S,3R,4R,5R)-Hexane-1,2,3,4,5,6-hexol]",% enzymatic activity of DispersinB (Mean),"4° C., freshly made control without polyol = 100%, listed as Sorbitol 1%",112* %
same,% enzymatic activity of DispersinB (Mean),"4° C., freshly made control without polyol = 100%, listed as Sorbitol 2.5%",107* %
same,% enzymatic activity of DispersinB (Mean),"4° C., freshly made control without polyol = 100%, listed as Sorbitol 5%",105* %
same,% enzymatic activity of DispersinB (Mean),"4° C., freshly made control without polyol = 100%, listed as Sorbitol 10%",107* %
same,% enzymatic activity of DispersinB (Mean),"4° C., freshly made control without polyol = 100%, listed as Sorbitol 20%",110* %
same,% enzymatic activity of DispersinB (Mean),"4° C., freshly made control without polyol = 100%, listed as Sorbitol 30%",113* %
same,% enzymatic activity of DispersinB (Mean),"42° C. for 3 hours, control without polyol = 100%, listed as Sorbitol 1%",80%
same,% enzymatic activity of DispersinB (Mean),"42° C. for 3 hours, control without polyol = 100%, listed as Sorbitol 2.5%",87%
same,% enzymatic activity of DispersinB (Mean),"42° C. for 3 hours, control without polyol = 100%, listed as Sorbitol 5%",89* %
same,% enzymatic activity of DispersinB (Mean),"42° C. for 3 hours, control without polyol = 100%, listed as Sorbitol 10%",88* %
same,% enzymatic activity of DispersinB (Mean),"42° C. for 3 hours, control without polyol = 100%, listed as Sorbitol 20%",88* %
same,% enzymatic activity of DispersinB (Mean),"42° C. for 3 hours, control without polyol = 100%, listed as Sorbitol 30%",101* %
same,temperature stabilizing effect on DispersinB at elevated temperatures,,exhibited temperature stabilizing effect
same,% enzymatic activity of DispersinB (Mean),"52° C. for 3 hours, control without polyol = 100%, listed as Sorbitol 1%",6* %
same,% enzymatic activity of DispersinB (Mean),"52° C. for 3 hours, control without polyol = 100%, listed as Sorbitol 2.5%",21* %
same,% enzymatic activity of DispersinB (Mean),"52° C. for 3 hours, control without polyol = 100%, listed as Sorbitol 5%",46* %
same,% enzymatic activity of DispersinB (Mean),"52° C. for 3 hours, control without polyol = 100%, listed as Sorbitol 10%",82* %
same,% enzymatic activity of DispersinB (Mean),"52° C. for 3 hours, control without polyol = 100%, listed as Sorbitol 20%",94* %
same,% enzymatic activity of DispersinB (Mean),"52° C. for 3 hours, control without polyol = 100%, listed as Sorbitol 30%",97* %
same,% enzymatic activity of DispersinB (Mean),"62° C. for 3 hours, control without polyol = 100%, listed as Sorbitol 5%",1* %
same,% enzymatic activity of DispersinB (Mean),"62° C. for 3 hours, control without polyol = 100%, listed as Sorbitol 10%",3* %
same,% enzymatic activity of DispersinB (Mean),"62° C. for 3 hours, control without polyol = 100%, listed as Sorbitol 20%",4* %
same,% enzymatic activity of DispersinB (Mean),"62° C. for 3 hours, control without polyol = 100%, listed as Sorbitol 30%",46* %

# Source: US20240041991A1, “STABLE LIQUID DISPERSINB COMPOSITIONS” (KANE BIOTECH INC., priority 2020, published 2024)
